Test results: PubChem BioAssay (NCI)
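Dose response: 5 concentrations. Exposure: 48 h. Format: 96-well plates. Endpoint: linear interpolation; highest concentration if not reached. At the TGI there is no net growth.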

Columns and labels:
Assay in all cases: DTP human tumour cell line panel, 48 h
SN12C renal = tested on: SN12C renal
SR leukemia = tested on: SR leukemia
NCI/ADR-RES ovarian = tested on: NCI/ADR-RES ovarian
CCRF-CEM leukemia = tested on: CCRF-CEM leukemia
SNB-75 CNS = tested on: SNB-75 CNS
PC-3 prostate = tested on: PC-3 prostate
CAKI-1 renal = tested on: CAKI-1 renal
HS 578T breast = tested on: HS 578T breast
NCI-H522 lung = tested on: NCI-H522 lung
MALME-3M melanoma = tested on: MALME-3M melanoma
COLO 205 colon = tested on: COLO 205 colon

SMILES | TGI (SN12C renal) [µM] | TGI (SR leukemia) [µM] | TGI (NCI/ADR-RES ovarian) [µM] | TGI (CCRF-CEM leukemia) [µM] | TGI (SNB-75 CNS) [µM] | TGI (PC-3 prostate) [µM] | TGI (CAKI-1 renal) [µM] | TGI (HS 578T breast) [µM] | TGI (NCI-H522 lung) [µM] | TGI (MALME-3M melanoma) [µM] | TGI (COLO 205 colon) [µM]
O=C1CCCC2=C1CC1=C(CCCC1=O)N2c1cccc2ccccc12 | > 100 | > 100 | > 100 | > 100 | > 100 | > 100 | > 100 | > 100 |  |  | 
CC(C)CC1c2[nH]c3ccccc3c2C[C@H]2C(=O)NC(CCC(=O)OC(C)(C)C)C(=O)N12 (stereo partly drawn) | 70.8 | 65.1 | > 100 |  |  | 69 | > 100 | 54.2 | 88.1 | 62.2 | 39.6
C[Si](C)(C)OC1c2[nH]c3ccccc3c2CN2C(=O)CCC12 (stereo not drawn) | > 100 | > 100 | > 100 |  | > 100 | > 100 | > 100 | > 100 | > 100 |  | > 100
C[C@]12CC(c3ccccc3O1)C(C(=O)NC13CC4CC(CC(C4)C1)C3)C(=O)N2 (stereo partly drawn) |  |  | 55.6 | 61.1 | 74 | > 100 | > 100 | > 100 | > 100 | > 100 | 31.7
N#CS/C(Cl)=C(/C(Cl)=C(Cl)Cl)[N+](=O)[O-] | > 100 | 53.9 | 98.1 | > 100 | > 100 | > 100 | > 100 | 61 |  | 47.1 | > 100
CC(=O)Nc1ccc2c(C)c3c4ccccc4n(C)c3nc2n1 | 43.3 | 45.6 | > 100 | 80.5 | > 100 | > 100 | > 100 | 50.2 | 65.6 |  | 30.9
CC1=C(OC2OC(CO)C(O)C(O)C2O)C(=O)C[C@H]2C1=CC[C@@H]1[C@@]2(C)C(=O)C[C@]2(C)[C@@H]([C@@](C)(O)C(=O)CCC(C)(C)O)[C@H](O)C[C@@]12C (stereo partly drawn) | > 100 | > 100 | > 100 | > 100 | > 100 | > 100 | > 100 |  | > 100 | > 100 | > 100
COc1cc2[nH]c(-c3cccc(N(C)C)c3)cc(=O)c2cc1OC | > 100 | > 100 |  | > 100 |  |  |  |  | 17.6 | > 100 | 19.1
CNC(=O)CCNC(=O)CCC(=O)OC | > 100 |  | > 100 |  |  | > 100 | > 100 |  |  |  | > 100
COC12C=CC(CC1)C1C(=O)c3c(C)c(C)n(C)c3C(=O)C12 (stereo not drawn) |  | > 100 | > 100 | > 100 | > 100 | > 100 |  | > 100 |  | > 100 | > 100
O=C1N=C(c2ccccc2)O/C1=C\c1ccccc1 | > 100 | > 100 | > 100 |  | > 100 | > 100 | > 100 | > 100 | > 100 | > 100 | > 100
CC1C[C@]2(C)C(=S)Nc3ccccc3[C@@H]2Nc2ccccc21 (stereo partly drawn) | 37.5 | > 100 | 36.6 | 54.4 | 61 | 35.7 | 79 | 85.5 |  | 30.8 | 33.8
COc1ccc(OC)c2nc3c(C(=O)NCCN(C)C)cccc3nc12 | > 36.1 |  | > 61.1 | 11 | 32.4 | 17.9 | > 74 | 29.6 | 13.4 | 27.3 | 11.9
CCOC(=O)c1nc2ccc(C(F)(F)F)cc2nc1Oc1ccc(F)cc1 |  | > 100 | > 100 | > 100 | > 100 | > 100 | > 100 | > 100 |  |  | > 100
COc1ccc2c3ccc4c(c3n(C)c2c1)C(=O)c1ccccc1C4=O | > 100 | > 100 |  | > 100 | > 100 |  |  |  | > 100 | > 100 | > 100
O=c1cc(-c2cccc(OC(F)(F)F)c2)[nH]c2cc3c(cc12)OCO3 | > 100 |  | 0.236 |  | 17.3 | > 100 | > 100 | 4.9 | > 100 | > 100 | > 32.2
Cc1c2c(n(CCc3ccccc3)c1C)NN=C(C#N)S2(=O)=O | > 100 | > 100 | > 100 |  | > 100 | > 100 |  | > 100 | > 100 | > 100 | > 100
CC1=NN(C(=O)Cc2ccccc2)C(=O)/C1=C\C=C\c1ccccc1 | > 100 | > 100 |  | > 100 | > 100 |  | > 100 |  | > 100 | > 100 | > 100
Cc1cc2oc(=O)[nH]c(=S)c2c(C)c1C | > 100 | > 100 |  | > 100 | > 100 |  |  |  | > 100 | > 100 | > 100
COc1ccc(C2C(Cl)C(=O)N2NC(=O)Cc2ccccc2)cc1 (stereo not drawn) | > 100 | > 100 |  | > 100 | > 100 |  | > 100 |  | > 100 | > 100 | > 100
C=C[C@@]1(C)CC(=O)[C@]2(O)[C@@]3(C)[C@@H](OC(C)=O)CCC(C)(C)[C@@H]3[C@H](OC(C)=O)[C@H](OC(C)=O)[C@@]2(C)O1 | > 100 | > 100 | > 100 |  | > 100 | > 100 | > 100 |  |  |  | 
CC1(O)/C(=N/O)CC2CC1C2(C)C (stereo not drawn) | > 100 |  |  | > 100 | > 100 |  |  | > 100 | > 100 | > 100 | > 100
C=C[C@H]1CN2CCc3c([nH]c4c([C@H]5CCCN5C)c(O)ccc34)[C@@H]2C[C@@H]1C[C@H]1c2[nH]c3ccccc3c2CCN1C | 3.04 |  | 3.38 | 2.11 | 2.4 | 3.11 | 3.17 | 4.59 | 3.52 | 3.19 | 2.83
